Like-named read-outs stand apart in the source and are kept apart here.
Key:
[1] = test system: MCF-7 cells; assay: MTT assay, MCF-7 growth inhibition; type: cell-based, human; conditions: Homo sapiens, read-out: EC50, MCF-7 cell viability
Description: Both mediums were enriched with 10% fetal bovine serum and 1% penicillin/streptomycin.
Cells in the exponential growth phase were seeded into 96-well plates and allowed to adhere overnight. […] After 24 h, 20 µL of Methyl-thiazolyldiphenyl-tetrazolium bromide (MTT, 5 mg/mL, Thermo Fisher Scientific) was added to each well and incubated for a minimum of 4 h. Following the incubation, the medium containing the compounds and MTT was removed from each well, and 200 µL of dimethyl sulfoxide (DMSO) was added.
(§1) All experiments were repeated at least three times, and the data are presented as mean ± standard deviation (SD). The statistical analyses were performed using Origin. EC50 or IC50 values were obtained by fitting the data to a four-parameter Hill model of the graph of log dose against percentage cell viability or inhibition from at least three sets of experiments. Difference between two groups were analyzed by Student’s t test (two-sided) and significance was set at p < 0.05. The specific details about statistical methods are introduced in respective figure legends.

[2] = biological target: T1, EGFR T790M (Homo sapiens, UniProt P00533, T790M); assay: Kinase inhibition assay (ADP-Glo, Promega); type: biochemical
T1 construct: purchased Promega Corporation, USA
T1 sequence (P00533 25-1210 T790M): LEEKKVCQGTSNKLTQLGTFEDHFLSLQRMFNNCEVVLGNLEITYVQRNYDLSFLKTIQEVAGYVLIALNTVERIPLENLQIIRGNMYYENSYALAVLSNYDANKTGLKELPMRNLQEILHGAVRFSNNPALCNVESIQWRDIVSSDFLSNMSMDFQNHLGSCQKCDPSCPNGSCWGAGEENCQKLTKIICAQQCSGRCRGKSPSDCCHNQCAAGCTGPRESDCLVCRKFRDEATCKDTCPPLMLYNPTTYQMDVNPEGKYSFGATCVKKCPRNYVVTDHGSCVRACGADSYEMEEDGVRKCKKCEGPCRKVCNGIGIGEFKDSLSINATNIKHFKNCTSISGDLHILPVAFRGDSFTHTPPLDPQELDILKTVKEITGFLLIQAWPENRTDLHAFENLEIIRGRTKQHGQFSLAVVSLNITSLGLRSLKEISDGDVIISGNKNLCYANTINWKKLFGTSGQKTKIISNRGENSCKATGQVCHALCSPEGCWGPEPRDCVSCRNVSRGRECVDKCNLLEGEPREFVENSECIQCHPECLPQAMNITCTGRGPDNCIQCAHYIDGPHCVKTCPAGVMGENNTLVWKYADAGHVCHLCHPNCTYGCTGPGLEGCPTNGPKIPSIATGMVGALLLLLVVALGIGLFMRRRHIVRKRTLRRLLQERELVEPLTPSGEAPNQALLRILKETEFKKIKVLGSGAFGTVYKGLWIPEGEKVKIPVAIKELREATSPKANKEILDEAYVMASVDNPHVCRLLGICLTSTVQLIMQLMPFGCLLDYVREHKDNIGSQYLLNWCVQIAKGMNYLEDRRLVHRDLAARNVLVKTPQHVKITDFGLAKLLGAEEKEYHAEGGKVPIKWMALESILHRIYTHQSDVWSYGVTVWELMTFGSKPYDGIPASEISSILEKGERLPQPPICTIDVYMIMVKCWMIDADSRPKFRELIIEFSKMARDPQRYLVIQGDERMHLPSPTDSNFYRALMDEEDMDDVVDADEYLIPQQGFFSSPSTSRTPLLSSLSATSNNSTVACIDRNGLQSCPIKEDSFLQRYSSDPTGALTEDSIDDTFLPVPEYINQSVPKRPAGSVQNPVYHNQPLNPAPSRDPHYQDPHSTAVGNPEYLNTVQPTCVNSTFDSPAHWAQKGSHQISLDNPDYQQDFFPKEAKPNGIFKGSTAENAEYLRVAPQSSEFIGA
Description: (§2) The extracellular ligand-binding domain of EGFR, tagged with His, and the intracellular tyrosine kinase (TK) domain of EGFR, tagged with GST, were acquired from Sinobiological, China. […] Cell lines including MCF-7, A549, A431, H1299, HL-60, and MCF-10A were obtained from the China Infrastructure Cell Line Resources.
(§3) The experiments were conducted in accordance with the manufacturer’s guidelines (Promega). The procedure began with a kinase reaction, where 5 μL of 1× kinase buffer was utilized, and the mixture was incubated at room temperature for 60 min. This step was followed by the addition of 5 μL of ADP-Glo™ reagent to terminate the kinase reaction and to deplete any remaining ATP, with a subsequent incubation period of 40 min at room temperature. Next, 10 μL of kinase detection reagent was added to convert ADP back into ATP, and luciferase along with luciferin was introduced to facilitate ATP detection. This mixture was then incubated at room temperature for an additional 30 min. Detection was carried out using a BioTek Synergy4 instrument, and data analysis, including curve fitting and presentation, was performed using GraphPad Prism version 5.0.
as §1

[3] = biological target: T2, WT EGFR (Homo sapiens, UniProt P00533); assay: Kinase inhibition assay (ADP-Glo, Promega); type: biochemical; conditions: in vitro kinase assay
T2 construct: purchased Promega Corporation, USA
T2 sequence (P00533 25-1210): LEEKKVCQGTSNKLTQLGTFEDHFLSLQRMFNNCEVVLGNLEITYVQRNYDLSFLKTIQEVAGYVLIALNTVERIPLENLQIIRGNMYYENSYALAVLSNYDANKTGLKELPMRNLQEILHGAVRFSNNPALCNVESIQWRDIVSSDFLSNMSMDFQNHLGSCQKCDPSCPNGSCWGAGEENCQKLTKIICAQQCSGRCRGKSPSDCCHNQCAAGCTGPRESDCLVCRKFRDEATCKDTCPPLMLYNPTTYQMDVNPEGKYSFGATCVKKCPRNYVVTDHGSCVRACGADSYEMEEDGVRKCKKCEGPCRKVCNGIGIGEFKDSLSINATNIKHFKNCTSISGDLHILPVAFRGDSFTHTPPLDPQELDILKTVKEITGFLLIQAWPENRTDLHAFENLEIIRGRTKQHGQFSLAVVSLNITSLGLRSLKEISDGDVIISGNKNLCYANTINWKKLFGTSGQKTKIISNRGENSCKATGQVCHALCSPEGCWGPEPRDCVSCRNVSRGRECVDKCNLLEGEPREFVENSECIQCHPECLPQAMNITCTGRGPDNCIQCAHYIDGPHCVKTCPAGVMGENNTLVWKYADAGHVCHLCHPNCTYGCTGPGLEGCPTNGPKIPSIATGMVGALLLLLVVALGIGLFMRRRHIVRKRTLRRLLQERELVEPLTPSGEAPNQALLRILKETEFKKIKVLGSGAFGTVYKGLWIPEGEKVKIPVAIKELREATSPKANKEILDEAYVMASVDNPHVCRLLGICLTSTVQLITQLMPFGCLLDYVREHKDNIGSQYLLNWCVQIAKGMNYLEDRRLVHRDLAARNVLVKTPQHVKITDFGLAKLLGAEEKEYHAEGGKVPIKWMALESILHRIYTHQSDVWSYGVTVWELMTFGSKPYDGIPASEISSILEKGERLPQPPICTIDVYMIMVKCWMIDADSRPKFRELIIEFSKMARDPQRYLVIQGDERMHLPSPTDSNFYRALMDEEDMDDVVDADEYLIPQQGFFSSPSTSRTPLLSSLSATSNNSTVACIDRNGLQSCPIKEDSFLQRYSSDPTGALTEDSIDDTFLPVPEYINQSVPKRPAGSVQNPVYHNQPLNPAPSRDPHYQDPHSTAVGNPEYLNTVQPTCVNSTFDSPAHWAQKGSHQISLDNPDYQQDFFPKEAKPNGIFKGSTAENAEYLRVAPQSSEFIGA
Description: as §2, §3, §1

[4] = biological target: T3, EGFR extracellular ligand binding domain (Homo sapiens, UniProt P00533); assay: SPR binding (Biacore 8K)
T3 construct: His; purchased Sinobiological, China
T3 sequence (P00533 25-645 limits assumed): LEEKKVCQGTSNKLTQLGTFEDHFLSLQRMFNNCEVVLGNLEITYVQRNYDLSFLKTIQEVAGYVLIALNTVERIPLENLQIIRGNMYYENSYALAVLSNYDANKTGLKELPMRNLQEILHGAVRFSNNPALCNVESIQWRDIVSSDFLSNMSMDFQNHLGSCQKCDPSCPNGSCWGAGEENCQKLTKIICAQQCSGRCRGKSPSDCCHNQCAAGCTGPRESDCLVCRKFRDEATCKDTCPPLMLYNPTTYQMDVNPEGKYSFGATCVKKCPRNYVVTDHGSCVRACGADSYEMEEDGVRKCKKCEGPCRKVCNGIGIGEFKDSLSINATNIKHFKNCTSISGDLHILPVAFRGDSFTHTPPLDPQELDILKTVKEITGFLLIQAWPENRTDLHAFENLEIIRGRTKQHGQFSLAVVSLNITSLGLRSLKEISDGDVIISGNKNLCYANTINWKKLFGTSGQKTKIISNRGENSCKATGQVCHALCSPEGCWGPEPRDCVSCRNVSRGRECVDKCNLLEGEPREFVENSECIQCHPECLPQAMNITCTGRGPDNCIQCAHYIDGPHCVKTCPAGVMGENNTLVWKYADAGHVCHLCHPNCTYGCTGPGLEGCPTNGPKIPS
Excerpt: (§4) The extracellular ligand-binding domain of EGFR, tagged with His, and the intracellular tyrosine kinase (TK) domain of EGFR, tagged with GST, were acquired from Sinobiological, China. Kinase assay systems for both wild-type EGFR and its mutants—T790M, L858R, and the dual L858R/T790M—were procured from Promega Corporation, USA. Cell lines including MCF-7, A549, A431, H1299, HL-60, and MCF-10A were obtained from the China Infrastructure Cell Line Resources.
(§5) The binding affinities of compounds towards EGFR extracellular ligand binding domain and EGFR intracellular kinase domain were assayed using the SPR-based Biacore 8K instrument (Cytiva). Considering the purchased EGFR was fused with GST tag, GST alone was also immobilized on the chip to do the binding measurement. All the proteins were respectively immobilized on a CM5 sensor chip by using standard amine-coupling at 25°C with running buffer HEPES-P (20 mM HEPES buffer, […], 0.05% surfactant P20, pH 7.4). A reference channel was only activated and blocked to eliminate compound unspecific binding to the surface of the chip. The immobilization level of EGFR extracellular ligand binding domain, EGFR intracellular kinase domain and GST were all about 10,000 RU. […] Extra wash with 50% DMSO was added to remove the last remaining sample in the pipeline.

[5] = biological target: T4, EGFR intracellular kinase domain (Homo sapiens, UniProt P00533); assay: SPR ATP competition experiments (1 mM ATP); conditions: in the presence of ATP, Figure S6
T4 sequence (P00533 712-979 limits assumed): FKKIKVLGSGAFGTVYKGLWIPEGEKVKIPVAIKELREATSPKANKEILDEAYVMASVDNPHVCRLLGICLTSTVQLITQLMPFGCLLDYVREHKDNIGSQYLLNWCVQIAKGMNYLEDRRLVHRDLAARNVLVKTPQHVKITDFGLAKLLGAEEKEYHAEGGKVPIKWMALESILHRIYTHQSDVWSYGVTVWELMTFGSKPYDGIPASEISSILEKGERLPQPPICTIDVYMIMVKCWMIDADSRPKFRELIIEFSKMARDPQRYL

[6] = biological target: T4, EGFR intracellular kinase domain; assay: SPR binding (Biacore 8K); parameters: the intracellular tyrosine kinase (TK) domain of EGFR, tagged with GST; purchased Sinobiological, China; conditions: without ATP
Excerpt: as §4, §5

[7] = biological target: T5, EGFR L858R (Homo sapiens, UniProt P00533, L858R); assay: Kinase inhibition assay (ADP-Glo, Promega); type: biochemical
T5 construct: purchased Promega Corporation, USA
Description: as §2, §3, §1

[8] = biological target: T6, EGFR L858R/T790M (Homo sapiens, UniProt P00533, L858R/T790M); assay: Kinase inhibition assay (ADP-Glo, Promega); type: biochemical
T6 construct: purchased Promega Corporation, USA
T6 sequence (P00533 25-1210 T790M/L858R): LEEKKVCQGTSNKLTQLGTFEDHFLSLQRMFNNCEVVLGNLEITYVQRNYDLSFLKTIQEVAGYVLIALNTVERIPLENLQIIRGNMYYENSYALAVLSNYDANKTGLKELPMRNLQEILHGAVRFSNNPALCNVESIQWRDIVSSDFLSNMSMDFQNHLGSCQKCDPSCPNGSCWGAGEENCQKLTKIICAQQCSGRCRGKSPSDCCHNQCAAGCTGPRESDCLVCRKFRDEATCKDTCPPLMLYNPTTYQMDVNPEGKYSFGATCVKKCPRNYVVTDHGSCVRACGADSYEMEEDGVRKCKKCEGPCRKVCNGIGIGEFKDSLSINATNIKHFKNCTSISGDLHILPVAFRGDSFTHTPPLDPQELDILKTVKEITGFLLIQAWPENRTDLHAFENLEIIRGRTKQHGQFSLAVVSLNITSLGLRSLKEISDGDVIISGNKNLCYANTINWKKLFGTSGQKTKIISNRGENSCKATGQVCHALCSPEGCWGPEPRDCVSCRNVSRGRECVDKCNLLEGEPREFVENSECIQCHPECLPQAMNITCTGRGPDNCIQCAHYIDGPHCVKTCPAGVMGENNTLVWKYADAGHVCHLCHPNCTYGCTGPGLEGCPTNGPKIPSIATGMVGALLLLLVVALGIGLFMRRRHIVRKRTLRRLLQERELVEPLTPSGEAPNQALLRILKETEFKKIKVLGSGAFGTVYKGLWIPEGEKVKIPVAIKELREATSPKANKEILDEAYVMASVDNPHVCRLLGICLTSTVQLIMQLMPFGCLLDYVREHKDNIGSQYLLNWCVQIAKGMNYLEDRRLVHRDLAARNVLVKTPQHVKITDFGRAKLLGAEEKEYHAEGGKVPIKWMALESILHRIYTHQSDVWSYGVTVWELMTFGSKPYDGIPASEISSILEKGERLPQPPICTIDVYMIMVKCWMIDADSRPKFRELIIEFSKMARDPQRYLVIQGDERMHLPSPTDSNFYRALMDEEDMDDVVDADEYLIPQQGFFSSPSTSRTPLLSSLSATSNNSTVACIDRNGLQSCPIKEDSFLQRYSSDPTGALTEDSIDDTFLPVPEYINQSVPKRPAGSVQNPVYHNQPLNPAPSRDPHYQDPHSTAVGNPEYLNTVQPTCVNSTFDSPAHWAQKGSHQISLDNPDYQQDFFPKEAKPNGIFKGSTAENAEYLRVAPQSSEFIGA
Description: as §2, §3, §1

[9] = biological target: T3, EGFR extracellular ligand binding domain; assay: SPR EGF competition experiments; conditions: for kon: read-out: ka
Excerpt: The protocol fixed the pre-flank contact time, analyte contact time, and post-flank contact time at 60 s, 60 s, and 120 s, respectively.

Row | SMILES | Kd [4] [µM] | binding to kinase domain of EGFR [5] | Kd [6] [µM] | EC50 ([1]; MCF7, 24 h) [µM] | IC50 [7] [µM] | IC50 [8] [µM] | IC50 [2] [µM] | IC50 ([3]; IC50 against WT EGFR) [µM] | also measured
1 | CC[C@@H](C)[C@H]1C=C[C@H]2[C@H](OC(=O)/C=C(\C)CC(=O)OC)[C@H](O)C[C@@H](C)[C@@H]2[C@@]1(C)C(=O)CCO [Tandyukisin B] | 30 | hardly bind | 7.02 | – | – | – | – | – | EC50 ([1]; MCF7, MTT, 24 h): 9.2 ± 1.2 µM; IC50 ([2]; in vitro kinase assay, read-out: IC50 against EGFR T790M): 0.0373 ± 0.0001 µM; IC50 ([3]; read-out: IC50 against WT EGFR): 0.0147 ± 0.0011 µM
2 | CC[C@@H](C)[C@H]1C=C[C@H]2[C@H](OC(=O)C/C(C)=C\C(=O)O)[C@H](O)C[C@@H](C)[C@@H]2[C@@]1(C)C(=O)CCO [Tandyukisin C] | 55.1 | hardly bind | 6.56 | 8.7 ± 1 | 0.003 ± 0.0002 | 0.156 ± 0.004 | 0.0297 ± 0.0001 | 0.0126 ± 0.0001 | –
3 | CC[C@@H](C)[C@H]1C=C[C@H]2[C@H](O)[C@H](OC(=O)/C=C(\C)CC(=O)O)C[C@@H](C)[C@@H]2[C@@]1(C)C(=O)CCO [Trichoharzin] | 7.98 | – | 6.34 | 4.8 ± 0.4 | 0.0028 ± 0.0006 | 0.0855 ± 0.0277 | 0.032 ± 0.0005 | 0.0119 ± 0.0001 | kon ([4]; Figure 4C-D, read-out: ka, EGFR ligand binding domain): 1810 M⁻¹ s⁻¹; folds weaker than binding alone ([9]; EGF 2.5 nM): 3.3 fold; Kd ([9]; EGF 2.5 nM, Figure 4H, read-out: KD): 26.2 µM; kon ([9]; EGF 2.5 nM, Figure 4H): 1030 M⁻¹ s⁻¹; folds weaker than binding alone ([9]; EGF 10 nM): 5.1 fold; Kd ([9]; EGF 10 nM, Figure 4I, read-out: KD): 40.6 µM; kon ([9]; EGF 10 nM, Figure 4I): 552 M⁻¹ s⁻¹; folds weaker than binding alone ([9]; EGF 20 nM): 7.0 fold; Kd ([9]; EGF 20 nM, Figure 4J, read-out: KD): 56.2 µM; kon ([9]; EGF 20 nM, Figure 4J): 374 M⁻¹ s⁻¹; inhibition of EGF-EGFR interaction ([9]; SPR, concentration-dependent, 125-500 μM): significantly inhibiting; Kd ([9]; in the presence of EGF 2.5 nM, read-out: KD for EGFR extracellular ligand binding domain): 26.2 µM; Kd ([9]; in the presence of EGF 10 nM, read-out: KD for EGFR extracellular ligand binding domain): 40.6 µM; Kd ([9]; in the presence of EGF 20 nM, read-out: KD for EGFR extracellular ligand binding domain): 56.2 µM; kon ([6]; Figure 4A-B, read-out: ka, EGFR kinase domain): 8040 M⁻¹ s⁻¹

Reference: PMC11094307, “Marine-derived EGFR inhibitors: novel compounds targeting breast cancer growth and drug resistance” (Frontiers in Pharmacology, 2024)
